{"source": "patent US6914045B2", "about": "“Glycopeptide antibiotics” (Wyeth Holdings Corporation, priority 2001, dated 2005)", "assay_in_all_cases": "in vitro antibacterial evaluation, MIC by broth dilution", "assay_type_in_all_cases": "cell-based", "key": {"[1]": {"test_system": "Escherichia coli", "conditions": "18 hours at 35° C.", "description": "(§1) The minimum inhibitory concentration (MIC), the lowest concentration of the antibiotic which inhibits growth of the test organism, is determined by the broth dilution method using Muller-Hinton II […] (Baltimore Biological Laboratories) following the recommendations of the National Committee for Clinical Laboratory Standards [Methods for dilution antimicrobial susceptibility tests for bacteria that grow aerobically, approved standard M7-A2, National Committee for Clinical Laboratory Standards, Villanova, Pa.].\n(§2) An inoculum level of 5×10^5 CFU/mL, and a range of antibiotic concentrations (64-0.06 μg/mL) is used. […] The test organisms include a spectrum of Gram-positive bacteria comprised of Staphylococcus sp., Streptococcus sp. and Enterococcus sp. These organisms include recent clinical isolates that are resistant to methicillin, penicillin and/or vancomycin."}, "[2]": {"test_system": "Streptococcus sp.", "conditions": "broth dilution, 18 hours at 35° C.", "description": "(§3) Methods for in vitro Antibacterial Evaluation (Table 1)\nas §1, §2"}, "[3]": {"test_system": "Staphylococcus sp.", "conditions": "broth dilution, 18 hours at 35° C.; for MIC Staphylococcus aureus (ATCC 29213): strain ATCC 29213; for MIC Staphylococcus aureus (GC 1131): strain GC 1131", "description": "as §3, §1, §2"}, "[4]": {"test_system": "Enterococcus sp.", "conditions": "broth dilution, 18 hours at 35° C.", "description": "as §3, §1, §2"}, "[5]": {"conditions": "Enterococcus faecalis (ATCC 29212)"}, "[6]": {"conditions": "Enterococcus faecalis (GC 4552)"}}}
{"smiles": "CCCCCCN=C1NCC(C(O)C2NC(=O)C(C(O)C3CNC(=N)N3)NC(=O)C(Cc3ccc(OC4OC(CO)C(OC5OC6COC7(OC6C(O)C5O)C5CC6CC(C5)CC7C6)C(O)C4O)cc3)NC(=O)C(C(C)c3ccccc3)NC(=O)CNC(=O)C(CO)NC2=O)N1C1OC(CO)C(O)C(O)C1O", "note": "(centres unmarked) [Example 84]", "values": [{"measurement": "MIC Escherichia coli (ATCC 25922)", "setting": "[1]", "result": ">64", "unit": "µg/mL"}, {"measurement": "MIC Escherichia coli (GC 4559)", "setting": "[1]", "result": 64, "unit": "µg/mL"}, {"measurement": "MIC Escherichia coli (GC 4560)", "setting": "[1]", "result": 4, "unit": "µg/mL"}, {"measurement": "MIC Streptococcus agalactiae (GC 4564)", "setting": "[2]", "result": 1, "unit": "µg/mL"}, {"measurement": "MIC Streptococcus pneumoniae (ATCC 6301)", "setting": "[2]", "result": 1, "unit": "µg/mL"}, {"measurement": "MIC Streptococcus pneumoniae (GC 1894)", "setting": "[2]", "result": 0.12, "unit": "µg/mL"}, {"measurement": "MIC Streptococcus pneumoniae (GC 4565)", "setting": "[2]", "result": 1, "unit": "µg/mL"}, {"measurement": "MIC Streptococcus pyogenes (GC 4563)", "setting": "[2]", "result": 0.5, "unit": "µg/mL"}, {"measurement": "MIC Streptococcus pneumoniae (ATCC 6301)", "setting": "[2]; strain ATCC 6301", "result": 1, "unit": "µg/mL"}, {"measurement": "MIC Streptococcus pneumoniae (GC 1894)", "setting": "[2]; strain GC 1894", "result": 0.12, "unit": "µg/mL"}, {"measurement": "MIC Streptococcus pyogenes (GC 4563)", "setting": "[2]; strain GC 4563", "result": 0.5, "unit": "µg/mL"}, {"measurement": "MIC Streptococcus agalactiae (GC 4564)", "setting": "[2]; strain GC 4564", "result": 1, "unit": "µg/mL"}, {"measurement": "MIC Streptococcus pneumoniae (GC 4565)", "setting": "[2]; strain GC 4565", "result": 1, "unit": "µg/mL"}, {"measurement": "MIC Coagulase Negative Staphylococcus (GC 4547)", "setting": "[3]", "result": 4, "unit": "µg/mL"}, {"measurement": "MIC Coagulase Negative Staphylococcus (GC 4548)", "setting": "[3]", "result": 4, "unit": "µg/mL"}, {"measurement": "MIC Coagulase Negative Staphylococcus (GC 4549)", "setting": "[3]", "result": 4, "unit": "µg/mL"}, {"measurement": "MIC Coagulase Negative Staphylococcus (GC 4551)", "setting": "[3]", "result": 4, "unit": "µg/mL"}, {"measurement": "MIC Coagulase Negative Staphylococcus (GC 6257)", "setting": "[3]", "result": 2, "unit": "µg/mL"}, {"measurement": "MIC Staphylococcus aureus-SMITH (GC 4543)", "setting": "[3]", "result": 4, "unit": "µg/mL"}, {"measurement": "MIC Staphylococcus haemolyticus (GC 4546)", "setting": "[3]", "result": 4, "unit": "µg/mL"}, {"measurement": "MIC Staphylococcus aureus (ATCC 29213)", "setting": "[3]", "result": 8, "unit": "µg/mL"}, {"measurement": "MIC Staphylococcus aureus (GC 1131)", "setting": "[3]", "result": 8, "unit": "µg/mL"}, {"measurement": "MIC Staphylococcus aureus (GC 3051)", "setting": "[3]; strain GC 3051", "result": 8, "unit": "µg/mL"}, {"measurement": "MIC Staphylococcus aureus (GC 3053)", "setting": "[3]; strain GC 3053", "result": 8, "unit": "µg/mL"}, {"measurement": "MIC Staphylococcus aureus (GC 4541)", "setting": "[3]; strain GC 4541", "result": 4, "unit": "µg/mL"}, {"measurement": "MIC Staphylococcus aureus (GC 4542)", "setting": "[3]; strain GC 4542", "result": 8, "unit": "µg/mL"}, {"measurement": "MIC Staphylococcus aureus-SMITH (GC 4543)", "setting": "[3]; strain GC 4543", "result": 4, "unit": "µg/mL"}, {"measurement": "MIC Staphylococcus aureus (GC 4544)", "setting": "[3]; strain GC 4544", "result": 8, "unit": "µg/mL"}, {"measurement": "MIC Staphylococcus aureus (GC 4545)", "setting": "[3]; strain GC 4545", "result": 8, "unit": "µg/mL"}, {"measurement": "MIC Staphylococcus haemolyticus (GC 4546)", "setting": "[3]; strain GC 4546", "result": 4, "unit": "µg/mL"}, {"measurement": "MIC Coagulase Negative Staphylococcus (GC 4547)", "setting": "[3]; strain GC 4547", "result": 4, "unit": "µg/mL"}, {"measurement": "MIC Coagulase Negative Staphylococcus (GC 4548)", "setting": "[3]; strain GC 4548", "result": 4, "unit": "µg/mL"}, {"measurement": "MIC Coagulase Negative Staphylococcus (GC 4549)", "setting": "[3]; strain GC 4549", "result": 4, "unit": "µg/mL"}, {"measurement": "MIC Coagulase Negative Staphylococcus (GC 4551)", "setting": "[3]; strain GC 4551", "result": 4, "unit": "µg/mL"}, {"measurement": "MIC Coagulase Negative Staphylococcus (GC 6257)", "setting": "[3]; strain GC 6257", "result": 2, "unit": "µg/mL"}, {"measurement": "MIC Enterococcus avium (GC 4558)", "setting": "[4]; Enterococcus avium (GC 4558)", "result": 8, "unit": "µg/mL"}, {"measurement": "MIC Enterococcus faecalis (ATCC 29212)", "setting": "[4]; [5]", "result": 8, "unit": "µg/mL"}, {"measurement": "MIC Enterococcus faecalis (GC 4552)", "setting": "[4]; [6]", "result": 8, "unit": "µg/mL"}, {"measurement": "MIC Enterococcus faecalis (GC 4553)", "setting": "[4]; Enterococcus faecalis (GC 4553)", "result": 8, "unit": "µg/mL"}, {"measurement": "MIC Enterococcus faecalis (GC 4554)", "setting": "[4]; Enterococcus faecalis (GC 4554)", "result": 16, "unit": "µg/mL"}, {"measurement": "MIC Enterococcus faecalis (GC 6189)", "setting": "[4]; Enterococcus faecalis (GC 6189)", "result": 8, "unit": "µg/mL"}, {"measurement": "MIC Enterococcus faecium (GC 2243)", "setting": "[4]; Enterococcus faecium (GC 2243)", "result": 4, "unit": "µg/mL"}, {"measurement": "MIC Enterococcus faecium (GC 4556)", "setting": "[4]; Enterococcus faecium (GC 4556)", "result": 8, "unit": "µg/mL"}, {"measurement": "MIC Enterococcus faecium (GC 4557)", "setting": "[4]; Enterococcus faecium (GC 4557)", "result": 1, "unit": "µg/mL"}, {"measurement": "MIC Enterococcus avium (GC 4558)", "setting": "[4]", "result": 8, "unit": "µg/mL"}, {"measurement": "MIC Enterococcus faecalis (ATCC 29212)", "setting": "[4]", "result": 8, "unit": "µg/mL"}, {"measurement": "MIC Enterococcus faecalis (GC 2242)", "setting": "[4]", "result": 8, "unit": "µg/mL"}, {"measurement": "MIC Enterococcus faecalis (GC 2691)", "setting": "[4]", "result": 8, "unit": "µg/mL"}, {"measurement": "MIC Enterococcus faecalis (GC 3059)", "setting": "[4]", "result": 8, "unit": "µg/mL"}, {"measurement": "MIC Enterococcus faecalis (GC 4552)", "setting": "[4]", "result": 8, "unit": "µg/mL"}, {"measurement": "MIC Enterococcus faecalis (GC 4553)", "setting": "[4]", "result": 8, "unit": "µg/mL"}, {"measurement": "MIC Enterococcus faecalis (GC 4554)", "setting": "[4]", "result": 16, "unit": "µg/mL"}, {"measurement": "MIC Enterococcus faecalis (GC 6189)", "setting": "[4]", "result": 8, "unit": "µg/mL"}, {"measurement": "MIC Enterococcus faecium (GC 2243)", "setting": "[4]", "result": 4, "unit": "µg/mL"}, {"measurement": "MIC Enterococcus faecium (GC 4556)", "setting": "[4]", "result": 8, "unit": "µg/mL"}, {"measurement": "MIC Enterococcus faecium (GC 4557)", "setting": "[4]", "result": 1, "unit": "µg/mL"}, {"measurement": "MIC Enterococcus faecalis (GC 2242)", "setting": "[4]; strain GC 2242", "result": 8, "unit": "µg/mL"}, {"measurement": "MIC Enterococcus faecalis (GC 2691)", "setting": "[4]; strain GC 2691", "result": 8, "unit": "µg/mL"}, {"measurement": "MIC Enterococcus faecalis (GC 3059)", "setting": "[4]; strain GC 3059", "result": 8, "unit": "µg/mL"}]}
{"smiles": "CCCCCC(=O)OCC1OC(N2C(=N)NCC2C(O)C2NC(=O)C(C(O)C3CNC(=N)N3)NC(=O)C(Cc3ccc(OC4OC(CO)C(OC5OC(CO)C(O)C(O)C5O)C(O)C4O)cc3)NC(=O)C(C(C)c3ccccc3)NC(=O)CNC(=O)C(CO)NC2=O)C(O)C(O)C1O", "note": "(stereo not drawn) [Example 95, Cyclo[glycyl-β-methylphenylalanyl-O-(4-O-hexojpyranosylhexopyranosyl)tyrosyl-3-(2-iminoimidazolidin-4-yl)seryl-3-[3-(6-O-hexanoylhexopyranosyl)-2-iminoimidazolidin-4-yl]serylseryl]]", "values": [{"measurement": "MIC Escherichia coli (GC 4559)", "setting": "[1]", "result": ">64", "unit": "µg/mL"}, {"measurement": "MIC Escherichia coli (GC 4560)", "setting": "[1]", "result": 8, "unit": "µg/mL"}, {"measurement": "MIC Coagulase Negative Staphylococcus (GC 4537)", "setting": "[3]", "result": ">64", "unit": "µg/mL"}, {"measurement": "MIC Coagulase Negative Staphylococcus (GC 4538)", "setting": "[3]", "result": ">64", "unit": "µg/mL"}, {"measurement": "MIC Coagulase Negative Staphylococcus (GC 4547)", "setting": "[3]", "result": ">64", "unit": "µg/mL"}, {"measurement": "MIC Staphylococcus aureus (ATCC 29213)", "setting": "[3]", "result": ">64", "unit": "µg/mL"}, {"measurement": "MIC Staphylococcus aureus (GC 1131)", "setting": "[3]", "result": ">64", "unit": "µg/mL"}, {"measurement": "MIC Staphylococcus aureus (GC 4535)", "setting": "[3]; strain GC 4535", "result": ">64", "unit": "µg/mL"}, {"measurement": "MIC Staphylococcus aureus-SMITH (GC 4536)", "setting": "[3]; strain GC 4536", "result": ">64", "unit": "µg/mL"}, {"measurement": "MIC Coagulase Negative Staphylococcus (GC 4537)", "setting": "[3]; strain GC 4537", "result": ">64", "unit": "µg/mL"}, {"measurement": "MIC Coagulase Negative Staphylococcus (GC 4538)", "setting": "[3]; strain GC 4538", "result": ">64", "unit": "µg/mL"}, {"measurement": "MIC Coagulase Negative Staphylococcus (GC 4547)", "setting": "[3]; strain GC 4547", "result": ">64", "unit": "µg/mL"}, {"measurement": "MIC Enterococcus faecalis (ATCC 29212)", "setting": "[4]; [5]", "result": ">64", "unit": "µg/mL"}, {"measurement": "MIC Enterococcus faecalis (GC 4552)", "setting": "[4]; [6]", "result": ">64", "unit": "µg/mL"}, {"measurement": "MIC Enterococcus faecalis (ATCC 29212)", "setting": "[4]", "result": ">64", "unit": "µg/mL"}, {"measurement": "MIC Enterococcus faecalis (GC 2242)", "setting": "[4]", "result": ">64", "unit": "µg/mL"}, {"measurement": "MIC Enterococcus faecalis (GC 4552)", "setting": "[4]", "result": ">64", "unit": "µg/mL"}, {"measurement": "MIC Enterococcus faecalis (GC 2242)", "setting": "[4]; strain GC 2242", "result": ">64", "unit": "µg/mL"}]}
